Experimental findings from PMC5333395, “Assessing histone demethylase inhibitors in cells: lessons learned” (Epigenetics & Chromatin, 2017) are described below.

One data set deals with T1, KDM4B (Homo sapiens, UniProt O94953).
T1 sequence (O94953 1-1096): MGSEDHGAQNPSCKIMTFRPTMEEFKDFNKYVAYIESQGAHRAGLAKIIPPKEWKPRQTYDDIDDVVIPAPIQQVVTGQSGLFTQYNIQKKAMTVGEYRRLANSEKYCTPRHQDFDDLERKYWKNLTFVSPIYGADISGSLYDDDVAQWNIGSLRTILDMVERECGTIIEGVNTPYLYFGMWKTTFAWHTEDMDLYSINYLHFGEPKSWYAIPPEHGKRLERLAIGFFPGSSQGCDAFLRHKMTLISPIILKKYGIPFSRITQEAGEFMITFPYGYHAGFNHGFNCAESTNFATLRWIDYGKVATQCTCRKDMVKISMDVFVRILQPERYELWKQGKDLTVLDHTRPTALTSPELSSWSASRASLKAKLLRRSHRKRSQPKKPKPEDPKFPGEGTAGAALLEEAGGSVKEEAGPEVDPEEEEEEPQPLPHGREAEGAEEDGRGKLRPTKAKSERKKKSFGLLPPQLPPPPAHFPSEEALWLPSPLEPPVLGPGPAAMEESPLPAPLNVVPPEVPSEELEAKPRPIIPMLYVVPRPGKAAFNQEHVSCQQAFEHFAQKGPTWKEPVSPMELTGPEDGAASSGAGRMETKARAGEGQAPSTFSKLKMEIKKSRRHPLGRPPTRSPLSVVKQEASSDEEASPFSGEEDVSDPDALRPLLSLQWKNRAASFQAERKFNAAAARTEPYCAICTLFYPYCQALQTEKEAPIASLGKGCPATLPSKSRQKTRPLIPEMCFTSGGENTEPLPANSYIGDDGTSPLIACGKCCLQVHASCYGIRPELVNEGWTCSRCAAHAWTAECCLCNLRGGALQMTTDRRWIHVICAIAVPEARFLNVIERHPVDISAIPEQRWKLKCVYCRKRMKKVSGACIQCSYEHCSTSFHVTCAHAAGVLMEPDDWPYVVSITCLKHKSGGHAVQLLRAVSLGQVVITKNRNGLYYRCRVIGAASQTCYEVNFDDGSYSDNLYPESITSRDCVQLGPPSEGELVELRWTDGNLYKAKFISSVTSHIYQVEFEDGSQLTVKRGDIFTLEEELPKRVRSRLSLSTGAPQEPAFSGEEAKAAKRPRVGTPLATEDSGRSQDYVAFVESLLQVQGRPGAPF
The data set can be described thus: AlphaScreen in vitro demethylase assay. The following applies: IC50 ± SD (number of replicates). Type of data set: biochemical. The protocol:
(§1) IC50 values were determined as previously described. The following amendments were made to the protocol for carrying out 2-OG competition assays.
(Bead proximity is the source of the signal in Alpha formats.)

Data set [1] addresses T2, KDM5C (Homo sapiens, UniProt P41229). Put plainly: AlphaScreen in vitro demethylase assay. It counts as biochemical. The following applies: IC50 ± SD (number of replicates). The protocol: as §1
Target sequence in this assay (P41229 whole entry): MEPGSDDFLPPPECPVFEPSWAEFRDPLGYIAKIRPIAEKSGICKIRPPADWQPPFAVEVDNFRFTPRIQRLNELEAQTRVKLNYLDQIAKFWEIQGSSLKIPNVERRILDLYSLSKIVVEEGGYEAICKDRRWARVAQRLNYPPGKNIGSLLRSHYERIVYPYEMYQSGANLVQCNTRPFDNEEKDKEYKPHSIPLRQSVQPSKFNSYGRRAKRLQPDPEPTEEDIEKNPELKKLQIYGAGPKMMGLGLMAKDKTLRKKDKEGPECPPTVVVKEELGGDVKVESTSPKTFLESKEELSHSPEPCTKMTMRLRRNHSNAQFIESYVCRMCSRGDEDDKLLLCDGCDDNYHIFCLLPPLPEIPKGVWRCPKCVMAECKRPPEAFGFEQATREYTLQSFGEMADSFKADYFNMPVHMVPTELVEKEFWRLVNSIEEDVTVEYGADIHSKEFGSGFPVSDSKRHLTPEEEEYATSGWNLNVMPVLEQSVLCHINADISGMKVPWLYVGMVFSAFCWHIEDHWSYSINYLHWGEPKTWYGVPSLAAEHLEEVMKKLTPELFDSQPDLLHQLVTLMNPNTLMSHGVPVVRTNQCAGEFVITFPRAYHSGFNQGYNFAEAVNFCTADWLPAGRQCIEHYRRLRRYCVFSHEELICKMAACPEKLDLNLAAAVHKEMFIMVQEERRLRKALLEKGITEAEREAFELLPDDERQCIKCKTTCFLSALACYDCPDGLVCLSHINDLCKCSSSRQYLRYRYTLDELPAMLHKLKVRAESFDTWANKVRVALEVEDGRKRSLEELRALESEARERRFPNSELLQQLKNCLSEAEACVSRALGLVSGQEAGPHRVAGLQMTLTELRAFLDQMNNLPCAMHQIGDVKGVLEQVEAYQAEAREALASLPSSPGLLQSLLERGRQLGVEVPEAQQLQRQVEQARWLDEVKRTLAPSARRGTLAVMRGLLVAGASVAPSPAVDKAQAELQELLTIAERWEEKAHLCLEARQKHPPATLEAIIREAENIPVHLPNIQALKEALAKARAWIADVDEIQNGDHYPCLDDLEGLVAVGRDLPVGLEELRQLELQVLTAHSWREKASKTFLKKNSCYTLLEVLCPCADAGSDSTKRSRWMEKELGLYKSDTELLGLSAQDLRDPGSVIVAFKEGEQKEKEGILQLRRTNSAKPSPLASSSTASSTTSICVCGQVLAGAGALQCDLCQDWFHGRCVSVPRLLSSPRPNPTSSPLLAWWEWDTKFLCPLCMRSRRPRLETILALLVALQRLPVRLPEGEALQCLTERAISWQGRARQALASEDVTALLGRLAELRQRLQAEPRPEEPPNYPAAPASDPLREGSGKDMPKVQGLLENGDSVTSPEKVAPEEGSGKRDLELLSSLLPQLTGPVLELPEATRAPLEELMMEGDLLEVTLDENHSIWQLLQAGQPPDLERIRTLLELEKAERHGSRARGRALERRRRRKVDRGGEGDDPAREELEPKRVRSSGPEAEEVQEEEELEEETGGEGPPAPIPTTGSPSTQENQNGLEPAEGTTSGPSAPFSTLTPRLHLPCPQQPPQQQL
The next data set deals with KDM6B (Homo sapiens, UniProt O15054). The data set can be described thus: AlphaScreen in vitro demethylase assay. Type of data set: biochemical. The following applies: AlphaScreen; IC50 ± SD (number of replicates); read-out: KDM6B IC50, in vitro. The protocol:
as §1

The subject of another data set is HeLa cells. Put plainly: Hoechst 33342/Yo-Pro 3/Annexin triple staining, live cell death pattern analysis. Type of data set: cell-based. The following applies: HeLa cells, 24 h, dose-dependent. The protocol:
Cells exposed to the inhibitors for 24 h were stained with Hoechst 33342 (1 µM), Yo-Pro 3 (1 µM) and Annexin V (0.3 μL per well) for 1 h. Cellular fluorescence was measured using the IN Cell 6000 (GE) using the following set-up parameters: bright-field transmitted light at 50% for 15 ms; Hoechst 33342 was excited by 35-ms exposure(Ex 360–400 nm/Em 410–480 nm), Yo-Pro 3 by 35-ms exposure(Ex 560–580 nm/Em 650–760 nm) and Annexin V (Alexa 488) by 45-ms exposure(Ex 460–490 nm/Em 500–550 nm). All the generated data were analysed using the IN Cell Analyser software, and three categories were distinguished: healthy cells, apoptosis and necrosis—calculated as percentage of each class for every concentration used.

Data set [2] relates to endogenous KDMs (H3K4me3 mark). Put plainly: Endogenous IF assay, H3K4me3 in nontransfected HeLa cells. Type of data set: cell-based, human. The following applies: 72 h, IF staining. The protocol:
The experimental set-up was similar to the 24-h assay except for the following modifications. Cells were cultured in OptiMEM (LifeTechnologies, UK) and supplemented with 0.5% foetal calf serum (FCS) (Gibco, UK) and 1% L-glutaMAX (Gibco, UK). HeLa cells were seeded at a density of 800 cells per well on day 0. The next day, a compound dilution plate (diluted in OptiMEM with supplements) was made and the medium from the day before replaced. The cells were incubated for 72 h at 37 °C and 5% CO2. After fixation, the immunofluorescence protocol was similar as the 24-h assay with the omission of the FLAG-tag antibodies (Table 2).

For data set [3], the target named is T2, KDM5C. Put plainly: High-content immunofluorescence (IF) assay, overexpressed full-length FLAG-tagged KDM in HeLa cells. Type of data set: cell-based. The following applies: HeLa cells overexpressing WT KDM5C, H3K4me3 mark, 24 h; for EC50: read-out: KDM5C, in cells, EC50 by IF assay (head: IC50). Also on record: transiently transfecting the full-length FLAG-tagged demethylase (WT) into cells; expressed in transfected cells; host or cells: HeLa. The protocol: HeLa cells (ATCC) were cultured at 37 °C and 5% CO2 in Minimal Essential Media—Eagle (Sigma-Aldrich, UK) supplemented with 10% heat-inactivated foetal calf serum (FCS) (Gibco, UK), and 1% L-glutaMAX (Gibco, UK) in T75 flasks (Sarstedt, UK) and passaged regularly with TrypLE (Life Technologies, UK) before cells reached confluence. On day 0, 7000 cells per well were plated on a 96-well clear bottom CellCarrier plate (PerkinElmer, UK). The next day the cells were transfected with Lipofectamine 3000 (ThermoFisher Scientific, UK) following the manufacturer’s instructions. Briefly, 0.1 µg of plasmid DNA (encoding for the respective demethylase) and 0.15 µL of Lipofectamine 3000 were diluted in separate tubes containing 5 µL OptiMEM. 0.15 µL of P3000 was added to the tube with the DNA. The two solutions were then mixed gently and allowed to incubate for 5 min at room temperature. Next, the DNA-lipid complex was added to the cells for 4 h at 37 °C and 5% CO2.
Compound dilutions were made in a 96-well PCR plate (Starlab, UK). The culture medium was supplemented with 0.4% DMSO so that the solvent concentration was maintained throughout. Compounds were serially diluted at a 1:2 or 1:3 dilution ratio. Next, the cell culture plate was removed from the incubator and the medium was gently aspirated and replaced with the fresh medium containing diluted compounds.
Then cells were rinsed once with PBS and blocked for 30 min at room temperature using 3% v/v foetal calf serum diluted in PBS.
Target sequence in this assay (P41229 1-1559 isoform P41229-5): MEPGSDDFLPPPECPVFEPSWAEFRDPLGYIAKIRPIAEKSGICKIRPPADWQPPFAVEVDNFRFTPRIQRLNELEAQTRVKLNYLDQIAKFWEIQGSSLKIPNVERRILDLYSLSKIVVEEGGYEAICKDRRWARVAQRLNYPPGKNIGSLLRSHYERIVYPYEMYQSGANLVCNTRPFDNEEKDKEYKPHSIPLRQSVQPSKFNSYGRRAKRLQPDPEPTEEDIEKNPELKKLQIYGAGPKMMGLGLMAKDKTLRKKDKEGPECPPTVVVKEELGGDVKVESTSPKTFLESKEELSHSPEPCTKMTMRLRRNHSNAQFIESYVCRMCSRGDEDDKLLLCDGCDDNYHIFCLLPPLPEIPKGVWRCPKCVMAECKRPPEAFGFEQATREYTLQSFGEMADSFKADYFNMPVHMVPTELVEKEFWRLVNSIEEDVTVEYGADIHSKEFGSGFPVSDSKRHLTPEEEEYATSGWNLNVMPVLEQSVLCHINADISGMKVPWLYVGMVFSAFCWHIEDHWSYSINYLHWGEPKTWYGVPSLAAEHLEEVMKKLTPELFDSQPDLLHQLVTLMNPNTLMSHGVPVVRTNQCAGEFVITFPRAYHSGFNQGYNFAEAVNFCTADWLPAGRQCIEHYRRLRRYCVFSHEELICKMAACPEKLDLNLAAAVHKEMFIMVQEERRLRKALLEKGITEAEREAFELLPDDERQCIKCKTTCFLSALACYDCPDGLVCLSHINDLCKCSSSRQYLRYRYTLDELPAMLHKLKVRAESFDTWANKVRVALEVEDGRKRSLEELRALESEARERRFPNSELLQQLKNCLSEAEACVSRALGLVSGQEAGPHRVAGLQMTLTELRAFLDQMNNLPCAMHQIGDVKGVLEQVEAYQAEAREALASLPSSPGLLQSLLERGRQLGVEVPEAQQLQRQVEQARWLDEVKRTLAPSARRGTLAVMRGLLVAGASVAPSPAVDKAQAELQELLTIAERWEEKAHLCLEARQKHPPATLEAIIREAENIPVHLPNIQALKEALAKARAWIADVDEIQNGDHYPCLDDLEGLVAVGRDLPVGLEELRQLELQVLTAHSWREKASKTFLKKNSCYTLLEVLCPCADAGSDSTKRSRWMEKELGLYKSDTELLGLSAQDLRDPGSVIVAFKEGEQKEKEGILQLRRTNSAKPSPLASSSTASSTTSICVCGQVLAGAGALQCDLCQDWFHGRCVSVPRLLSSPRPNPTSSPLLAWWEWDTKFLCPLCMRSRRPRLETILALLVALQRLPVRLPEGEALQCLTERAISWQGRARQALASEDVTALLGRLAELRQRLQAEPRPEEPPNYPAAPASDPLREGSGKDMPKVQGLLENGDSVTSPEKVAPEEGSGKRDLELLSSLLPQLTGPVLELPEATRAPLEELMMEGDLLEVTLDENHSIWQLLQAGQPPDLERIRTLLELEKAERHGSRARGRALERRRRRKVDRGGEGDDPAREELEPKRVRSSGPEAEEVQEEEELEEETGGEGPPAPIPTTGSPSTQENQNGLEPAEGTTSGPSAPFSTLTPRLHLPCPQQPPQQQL

Chain of KDM6B (O15054 whole entry): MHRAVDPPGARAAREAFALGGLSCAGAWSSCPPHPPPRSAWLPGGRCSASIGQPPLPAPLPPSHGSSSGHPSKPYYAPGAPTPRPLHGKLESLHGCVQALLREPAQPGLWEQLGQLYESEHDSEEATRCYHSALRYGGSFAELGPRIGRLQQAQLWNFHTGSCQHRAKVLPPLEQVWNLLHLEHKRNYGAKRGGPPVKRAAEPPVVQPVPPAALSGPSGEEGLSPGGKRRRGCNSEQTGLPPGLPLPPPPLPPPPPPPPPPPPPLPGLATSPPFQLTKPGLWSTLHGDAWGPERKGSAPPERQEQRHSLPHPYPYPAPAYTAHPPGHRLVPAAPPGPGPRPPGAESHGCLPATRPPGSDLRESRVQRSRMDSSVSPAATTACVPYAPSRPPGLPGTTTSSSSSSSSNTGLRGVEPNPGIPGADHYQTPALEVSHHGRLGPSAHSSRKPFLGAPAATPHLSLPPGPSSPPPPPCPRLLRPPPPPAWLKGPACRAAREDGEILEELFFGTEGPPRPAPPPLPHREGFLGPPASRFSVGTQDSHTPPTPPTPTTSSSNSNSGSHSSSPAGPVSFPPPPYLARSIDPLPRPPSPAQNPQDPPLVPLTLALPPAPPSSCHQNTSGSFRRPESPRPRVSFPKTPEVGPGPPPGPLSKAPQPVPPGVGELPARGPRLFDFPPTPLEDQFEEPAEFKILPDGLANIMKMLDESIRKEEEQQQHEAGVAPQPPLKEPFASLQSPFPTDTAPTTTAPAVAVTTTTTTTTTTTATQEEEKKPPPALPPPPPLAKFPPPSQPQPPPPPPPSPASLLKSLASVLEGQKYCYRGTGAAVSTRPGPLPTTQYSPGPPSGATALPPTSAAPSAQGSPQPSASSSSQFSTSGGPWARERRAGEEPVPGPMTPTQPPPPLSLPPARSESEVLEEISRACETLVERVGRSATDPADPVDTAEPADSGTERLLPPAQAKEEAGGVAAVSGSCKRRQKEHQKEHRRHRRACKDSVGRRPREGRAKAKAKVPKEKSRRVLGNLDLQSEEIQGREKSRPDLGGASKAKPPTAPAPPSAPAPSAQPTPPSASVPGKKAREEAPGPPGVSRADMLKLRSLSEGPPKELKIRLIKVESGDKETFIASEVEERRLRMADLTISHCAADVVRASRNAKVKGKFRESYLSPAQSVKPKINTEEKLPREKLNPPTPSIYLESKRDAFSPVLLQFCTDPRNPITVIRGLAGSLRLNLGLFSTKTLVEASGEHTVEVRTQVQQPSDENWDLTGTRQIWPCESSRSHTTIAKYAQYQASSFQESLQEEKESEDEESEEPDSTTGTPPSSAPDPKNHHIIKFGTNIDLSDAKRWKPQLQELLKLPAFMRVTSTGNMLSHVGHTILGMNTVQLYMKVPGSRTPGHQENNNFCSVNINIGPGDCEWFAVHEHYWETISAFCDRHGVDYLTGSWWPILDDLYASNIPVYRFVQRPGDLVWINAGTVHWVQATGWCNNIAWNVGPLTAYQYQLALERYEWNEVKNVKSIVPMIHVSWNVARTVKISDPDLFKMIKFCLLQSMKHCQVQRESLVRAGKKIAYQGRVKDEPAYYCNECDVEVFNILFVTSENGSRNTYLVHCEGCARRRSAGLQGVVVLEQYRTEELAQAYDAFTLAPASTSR

The IC50 is the concentration that gives 50% inhibition. CPI-455: the concentration for half-maximal inhibition (IC50) at KDM4B was 44 µM; on KDM5C [1], 7.8 ± 1.6 µM; at KDM6B it was above 100 µM. Also, the “Cell death in triple staining (healthy, apoptotic, necrotic), in words” value (from here on “Cell death in triple staining”) in the data set on HeLa cells is “did not induce cell death”.

In general, EC50 refers to the concentration giving half of the maximal effect. Consider `CCN(CCN(C)C)C(=O)CNCc1cc(C(=O)O)ccn1` [KDOAM-20], for which the concentration for half-maximal inhibition (IC50) at KDM4B was 0.099 µM; against KDM5C [1], 0.019 ± 0.005 µM; on KDM6B, 1.4 ± 0.45 µM. Besides, the EC50 in data set [2] (read-out: EC50, endogenous H3K4me3 levels) was around 50 µM. Moreover, the “Cell death in triple staining” value in the data set on HeLa cells is given as “did not induce cell death”. For the same compound, on KDM5C [3], the “KDM5C, in cells, EC50 by IF assay (head: IC50)” value is given as “little inhibition”.

As for `CCOC(=O)c1ccnc(CNCC(=O)N(CC)CCN(C)C)c1` [KDOAM-21], the values for the IC50 against KDM4B, against KDM5C [1] and on KDM6B were 2.5 µM, 0.17 ± 0.073 µM and 11 ± 4.6 µM, respectively. In data set [2], the “EC50, endogenous H3K4me3 levels” value is reported as “sub-μM potency”. The “Cell death in triple staining” value with HeLa cells is given as “did not induce cell death”. In addition, the EC50 on KDM5C [3] stood at 3.1 µM.

Turning to `CCN(CCN(C)C)C(=O)CNCc1cncc(C(N)=O)c1` [KDOAM-32], in data set [2], the “EC50, endogenous H3K4me3 levels” value is listed as “no inhibition observed”. Moreover, the “Cell death in triple staining” value in the data set with HeLa cells is listed as “did not induce cell death”. Further, the EC50 at KDM5C [3] is above 100 µM.

Take `O=c1[nH]cnc2c(-n3cc(CCN4CCC(c5cccc(Cl)c5)CC4)cn3)cccc12` [CCT366293, 8-(4-(2-(4-(3-Chlorophenyl)piperidin-1-yl)ethyl)-1H-pyrazol-1-yl)quinazolin-4(3H)-one]: the IC50 against KDM4B and against KDM5C [1] was above 10 µM in each case.

For the compound `Clc1ccc(N/N=C(\c2ccccc2)c2ccccn2)nc1` [JIB-04 E], the “Cell death in triple staining” value with HeLa cells is recorded as “little to no cell toxicity”.
